Data reported in ChEMBL document CHEMBL5257105, “Identification and structure-activity relationships for a series of N, N-disubstituted 2-aminobenzothiazoles as potent inhibitors of S. aureus” (Bioorg Med Chem Lett, 2023).
Converted amounts (≈) assume the structure as drawn. “And” between values parts separate entries of the source, which are not always exact repeats. Equal values may be shown once. The source made the active and inactive calls. The rule behind the calls is not given here.

Legend:
Staphylococcus aureus [1] = test: Antibacterial activity against Staphylococcus aureus; format: functional; conditions: for MIC: read-out: MIC
A549 = test: (§1) Cytotoxicity against human A549 cells; format: toxicity, cell-based; conditions: a549
Pseudomonas aeruginosa [2] = test: Antibacterial activity against Pseudomonas aeruginosa PAO1; format: functional
Escherichia coli [3] = test: Antibacterial activity against wild type Escherichia coli harbouring pore; format: functional
Escherichia coli [4] = test: Antibacterial activity against […] Escherichia coli harbouring TolC-deficient mutant; format: functional
Escherichia coli [5] = test: Antibacterial activity against […] Escherichia coli harbouring TolC-deficient mutant with pore; format: functional
Pseudomonas aeruginosa [6] = test: Antibacterial activity against Pseudomonas aeruginosa PAO1 harbouring delta6 mutant; format: functional
Pseudomonas aeruginosa [7] = test: Antibacterial activity against Pseudomonas aeruginosa PAO1 harbouring delta6 mutant with pore; format: functional
Escherichia coli [8] = test: Antibacterial activity against Escherichia coli; format: functional
Pseudomonas aeruginosa [9] = test: Antibacterial activity against Pseudomonas aeruginosa PAO1 harbouring pore; format: functional
[10] = as §1; format: toxicity, cell-based; conditions: A549 cells
Staphylococcus aureus [11] = test: Bacteriostatic activity against Staphylococcus aureus ATCC 25923 at 4 times MIC by time kill assay; format: functional, organism-based
Staphylococcus aureus [12] = test: Bactericidal activity against Staphylococcus aureus ATCC 25923 at 16 times MIC measured after 7 to 24 hrs by time kill assay; format: functional, organism-based; conditions: time 7-24 hrs
Staphylococcus aureus [13] = test: Bacteriostatic activity against Staphylococcus aureus ATCC 25923 at MIC by time kill assay; format: functional, organism-based
Staphylococcus aureus [14] = test: Antibacterial activity against Staphylococcus aureus ATCC 25923; format: functional
Staphylococcus aureus [15] = test: Antibacterial activity against Staphylococcus aureus ATCC 215; format: functional
Staphylococcus aureus [16] = test: Antibacterial activity against Staphylococcus aureus ATCC 216; format: functional
Staphylococcus aureus [17] = test: Antibacterial activity against Staphylococcus aureus ATCC 217; format: functional
Staphylococcus aureus [18] = test: Antibacterial activity against Staphylococcus aureus ATCC 219; format: functional
Staphylococcus aureus [19] = test: Antibacterial activity against Staphylococcus aureus ATCC 223; format: functional
Staphylococcus aureus [20] = test: Antibacterial activity against Staphylococcus aureus ATCC 701; format: functional
Staphylococcus aureus [21] = test: Antibacterial activity against Staphylococcus aureus ATCC 711; format: functional
Staphylococcus aureus [22] = test: Antibacterial activity against Staphylococcus aureus ATCC 716; format: functional
[23] = Staphylococcus aureus, read-out: MIC80

| SMILES | MIC (Staphylococcus aureus [1]; Staphylococcus aureus) | MIC (Pseudomonas aeruginosa [2]) | MIC (Escherichia coli [3]) | MIC (Escherichia coli [4]) | MIC (Escherichia coli [5]) | MIC (Pseudomonas aeruginosa [6]) | MIC (Pseudomonas aeruginosa [7]) | MIC80 (Staphylococcus aureus [1]; [23]) | also measured |
| --- | --- | --- | --- | --- | --- | --- | --- | --- | --- |
| Cc1cc(Cl)cc2sc(N(CCCn3ccnc3)C(=O)C3CCC3)nc12 | 2.6 µM (≈ 1.01 µg/mL) |  |  |  |  |  |  |  | CC50 (A549): 44.6 µM |
| CO[C@@H]1[C@@H](OC(N)=O)[C@@H](O)[C@H](Oc2ccc3c(O)c(NC(=O)c4ccc(O)c(CC=C(C)C)c4)c(=O)oc3c2C)OC1(C)C [NOVOBIOCIN] |  | > 512 µM | 64 µM (≈ 39.2 µg/mL) | 1 µM (≈ 0.613 µg/mL) | 0.125 µM (≈ 0.0766 µg/mL) | 256 µM (≈ 157 µg/mL) | 4 µM (≈ 2.45 µg/mL) |  |  |
| Cc1cc(Cl)cc2sc(N(CCCn3cc[n+](C)c3)C(=O)c3ccco3)nc12 |  |  |  |  |  |  |  |  | MIC80 (Staphylococcus aureus [1]): 29.6 µM and 13.2 µM |
| Cc1cc(Cl)cc2sc(N(CC3CCC(N)CC3)C(=O)c3ccco3)nc12 (stereo not given) |  | > 200 µM | 100 µM (≈ 40.4 µg/mL) | 50 µM (≈ 20.2 µg/mL) | 25 µM (≈ 10.1 µg/mL) |  | 12.5 µM (≈ 5.05 µg/mL) | 19.8 µM (≈ 8 µg/mL) | MIC80 (Staphylococcus aureus [1]): 29.6 µM (≈ 12 µg/mL); MIC (Escherichia coli [8]): > 200 µM; MIC (Pseudomonas aeruginosa [9]): > 200 µM |
| CC[C@H]1OC(=O)[C@H](C)[C@@H](O[C@H]2C[C@@](C)(OC)[C@@H](O)[C@H](C)O2)[C@H](C)[C@@H](O[C@@H]2O[C@H](C)C[C@H](N(C)C)[C@H]2O)[C@](C)(O)C[C@@H](C)C(=O)[C@H](C)[C@@H](O)[C@]1(C)O [ERYTHROMYCIN] |  | 128 µM (≈ 93.9 µg/mL) | 4 µM (≈ 2.94 µg/mL) | 2 µM (≈ 1.47 µg/mL) |  | 8 µM (≈ 5.87 µg/mL) | 0.063 µM (≈ 0.0462 µg/mL) |  | MIC (Escherichia coli [8]): 64 µM (≈ 47 µg/mL) |
| Cc1cc(Cl)cc2sc(N(CC3CCNCC3)C(=O)c3ccco3)nc12 |  | > 200 µM | 200 µM (≈ 78 µg/mL) | 50 µM (≈ 19.5 µg/mL) | 50 µM (≈ 19.5 µg/mL) | 25 µM (≈ 9.75 µg/mL) | 25 µM (≈ 9.75 µg/mL) | 13.2 µM (≈ 5.15 µg/mL) | MIC80 (Staphylococcus aureus [1]): 19.8 µM (≈ 7.72 µg/mL); MIC (Escherichia coli [8]): 200 µM (≈ 78 µg/mL); MIC (Pseudomonas aeruginosa [9]): > 200 µM |
| Cc1cc(Cl)cc2sc(N(CCCn3ccnc3)Cc3ccccc3)nc12 |  |  |  |  |  | > 200 µM | 3.2 µM (≈ 1.27 µg/mL) | 5.9 µM (≈ 2.34 µg/mL) | CC50 [10]: 33.3 µM |
| Cc1cc(Cl)cc2sc(N(CCCn3ccnc3)CS(=O)(=O)c3cccs3)nc12 |  |  |  |  |  |  |  | 3.9 µM (≈ 1.82 µg/mL) | CC50 [10]: 26.3 µM |
| Cc1cc(Cl)cc2sc(N(CC3CCCNC3)C(=O)c3ccco3)nc12 (stereo not given) |  | > 200 µM | 100 µM (≈ 39 µg/mL) | 100 µM (≈ 39 µg/mL) | 50 µM (≈ 19.5 µg/mL) | > 200 µM | 25 µM (≈ 9.75 µg/mL) | 29.6 µM (≈ 11.5 µg/mL) | MIC80 (Staphylococcus aureus [1]): 19.8 µM (≈ 7.72 µg/mL); MIC (Pseudomonas aeruginosa [9]): > 200 µM |
| Cc1cc(Cl)cc2sc(N(CCCn3ccnc3)C(=O)C3CC3)nc12 | 3.9 µM (≈ 1.46 µg/mL) | > 200 µM | 200 µM (≈ 75 µg/mL) | < 0.2 µM | < 0.2 µM | 50 µM (≈ 18.7 µg/mL) | 1.56 µM (≈ 0.585 µg/mL) |  | Activity (Staphylococcus aureus [11]): Active; Activity (Staphylococcus aureus [12]): Active; Activity (Staphylococcus aureus [13]): Active; MIC (Staphylococcus aureus [14]): 3.9 µM (≈ 1.46 µg/mL); MIC (Staphylococcus aureus [15]): 14.8 µM (≈ 5.55 µg/mL); MIC (Staphylococcus aureus [16]): 4.4 µM (≈ 1.65 µg/mL); MIC (Staphylococcus aureus [17]): 14.8 µM (≈ 5.55 µg/mL); MIC (Staphylococcus aureus [18]): 2.9 µM (≈ 1.09 µg/mL); MIC (Staphylococcus aureus [19]): 4.4 µM (≈ 1.65 µg/mL); MIC (Staphylococcus aureus [20]): 4.4 µM (≈ 1.65 µg/mL); MIC (Staphylococcus aureus [21]): 4.4 µM (≈ 1.65 µg/mL); MIC (Staphylococcus aureus [22]): 4.4 µM (≈ 1.65 µg/mL); MIC (Escherichia coli [8]): > 200 µM; MIC (Pseudomonas aeruginosa [9]): > 200 µM |
| Cc1cc(Cl)cc2sc(N(CCCn3ccnc3)C(=O)C3CCCO3)nc12 (stereo not given) | 13.2 µM (≈ 5.34 µg/mL) |  |  |  |  |  |  |  | CC50 (A549): 87.6 µM |
| NCc1cccc2sc(N(CCCn3ccnc3)C(=O)c3ccco3)nc12 | 66.7 µM (≈ 25.4 µg/mL) | > 200 µM | > 200 µM | 100 µM (≈ 38.1 µg/mL) | 100 µM (≈ 38.1 µg/mL) | 100 µM (≈ 38.1 µg/mL) | 100 µM (≈ 38.1 µg/mL) |  | MIC (Escherichia coli [8]): > 200 µM; MIC (Pseudomonas aeruginosa [9]): > 200 µM |
| Cc1cc(Cl)cc2sc(N(CCCn3ccnc3)CS(=O)(=O)c3ccco3)nc12 |  |  |  |  |  |  |  | 3.9 µM (≈ 1.76 µg/mL) | CC50 [10]: 43.2 µM |

More lines, main results first:

| MIC (Staphylococcus aureus [1]; Staphylococcus aureus) | SMILES | MIC (Pseudomonas aeruginosa [2]) | MIC (Escherichia coli [3]) | MIC (Escherichia coli [4]) | MIC (Escherichia coli [5]) | MIC (Pseudomonas aeruginosa [6]) | MIC (Pseudomonas aeruginosa [7]) | MIC80 (Staphylococcus aureus [1]; [23]) | also measured |
| --- | --- | --- | --- | --- | --- | --- | --- | --- | --- |
| > 100 µM | NCc1ccc2nc(N(CCCn3ccnc3)C(=O)c3ccco3)sc2c1 |  |  |  |  |  |  |  |  |
| 44.4 µM (≈ 15.6 µg/mL) | O=C(c1ccco1)N(CCCn1ccnc1)c1nc2ccccc2s1 |  |  |  |  |  |  |  | CC50 [10]: 142 µM |
| 100 µM (≈ 36.4 µg/mL) | Cc1cc(Cl)cc2sc(N(CCCn3ccnc3)C(=O)CN)nc12 |  |  |  |  |  |  |  |  |
| 16.5 µM (≈ 7.11 µg/mL) | Cc1ccc(C(=O)N(CCCn2ccnc2)c2nc3c(C)cc(Cl)cc3s2)s1 |  |  |  |  |  |  |  | CC50 (A549): 34.1 µM |
| 2.6 µM (≈ 1.04 µg/mL) | Cc1c(Cl)ccc2sc(N(CCCn3ccnc3)C(=O)c3ccco3)nc12 |  |  |  |  |  |  |  | CC50 [10]: 27.4 µM |
| 2.6 µM (≈ 1.08 µg/mL) | Cc1ccoc1C(=O)N(CCCn1ccnc1)c1nc2c(C)cc(Cl)cc2s1 |  |  |  |  |  |  |  | CC50 (A549): 90.2 µM; MIC (Staphylococcus aureus [14]): 2.6 µM (≈ 1.08 µg/mL); MIC (Staphylococcus aureus [16]): 14.8 µM (≈ 6.14 µg/mL); MIC (Staphylococcus aureus [18]): 22.2 µM (≈ 9.21 µg/mL); MIC (Staphylococcus aureus [19]): 9.9 µM (≈ 4.11 µg/mL); MIC (Staphylococcus aureus [20]): 14.8 µM (≈ 6.14 µg/mL); MIC (Staphylococcus aureus [21]): 14.8 µM (≈ 6.14 µg/mL); MIC (Staphylococcus aureus [22]): 14.8 µM (≈ 6.14 µg/mL) |
